Assay results from US20190110476A1, “NOVEL ISOTHIAZOLAMIDES, PROCESSES FOR THEIR PREPARATION AND THEIR USE AS FUNGICIDES” (priority 2014, published 2019).
Marks after values point to notes of the source that are not given here.

test: Measurement of LogP values by HPLC on reversed phase columns (EEC directive 79/831 Annex V.A8); type: physicochemical; conditions: not given
Method in brief: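 Following EEC directive 79/831 Annex V.A8, lipophilicity was derived from retention on reversed-phase HPLC columns. Separate values are given per diastereoisomer, and UV lambda-max (200–400 nm) was read at the peak signals.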

LogP	LogP [a]	LogP [b]	SMILES
2.69[a]	–	–	Nc1nsc(C(=O)NCC2CCCCC2C(F)(F)F)c1Cl (stereo not drawn) [I-1567]
3.29[a]	–	–	C[C@H](NC(=O)c1snc(N)c1-c1ccc(F)cc1)C1CCCCC1 [I-333]
1.81[a]	–	–	Nc1nsc(C(=O)NCC2(F)CCCC2)c1Cl [I-826]
4.80[a]	–	–	COc1ccc(CNc2nsc(C(=O)N(Cc3c(Cl)cccc3Cl)C3CC3)c2Cl)cc1 [I-929]
1.82[a]	–	–	Cc1c(N)nsc1C(=O)NCc1cc(F)cc(F)c1F [I-585]
2.73[a]	–	–	COc1ccc(CNc2nsc(C(=O)NC(C)c3ccno3)c2Cl)cc1 (stereo not drawn) [I-1338]
–	1.42^[a]	–	CS(C)=Nc1nsc(C(=O)NCc2c(F)cc(F)cc2F)c1Cl [II-043]
3.02[a]	–	–	Nc1nsc(C(=O)NC2CCCCC2c2ccccc2)c1Cl (stereo not drawn) [I-287]
3.00[a]	–	–	CCC(C)C(C)N(C(=O)c1snc(N)c1Cl)C1CC1 (stereo not drawn) [I-901]
2.77[a]	–	–	CC(=O)N(C(C)=O)c1nsc(C(=O)N(C(C)C)C(C)C)c1Cl [I-975]
2.86[a]	–	–	Nc1nsc(C(=O)N(Cc2cc(Cl)ccc2F)C2CC2)c1Cl [I-364]
–	2.20^[a]	–	O=C(NCC1CCCO1)c1snc(Cl)c1Cl (stereo not drawn) [E-II-006]
3.39[a]	–	–	COc1ccc(CNc2nsc(C(=O)NCc3ccc(C)n3C)c2Cl)cc1 [I-1320]
1.52[a]	–	–	Cc1c(N)nsc1C(=O)NCc1ccc(F)cc1 [I-050]
0.63[a]	–	–	Nc1cc(C(=O)NCC2CCCC2O)sn1 (stereo not drawn) [I-774]
4.45[a]	–	–	O=C(NCc1ccc(F)cc1F)c1cc(N(Cc2ccccc2)Cc2ccccc2)ns1 [I-322]
2.89[a]	–	–	C=CCNc1nsc(C(=O)NCc2ccccc2F)c1Cl [I-071]
4.07[a]	–	–	COc1ccc(CNc2nsc(C(=O)NCCc3ccccc3Cl)c2Cl)cc1 [I-877]
3.09[a]	–	–	Cc1ccc(CN(C(=O)c2snc(N)c2Cl)C2CC2)c(C)c1 [I-152]
5.90[a]	–	–	O=C(c1cc(N(Cc2ccccc2)Cc2ccccc2)ns1)N(Cc1c(Cl)cccc1Cl)C1CC1 [I-939]
3.30[a]	–	–	CC1(C)CCCCC1N(C(=O)c1snc(N)c1Cl)C1CC1 (stereo not drawn) [I-863]
1.75[a]	–	–	COc1cccc(CNC(=O)c2snc(N)c2Cl)c1 [I-022]
1.69[a]	–	–	Nc1nsc(C(=O)NCc2ccccc2)c1Cl [I-004]
3.48[a]	–	–	CCCC(c1ccccc1)N(C(=O)c1snc(N)c1Cl)C1CC1 (stereo not drawn) [I-908]

LogP	LogP [a]	LogP [b]	SMILES
–	2.02	1.98	Nc1nsc(C(=O)N2CCc3ccccc3C2)c1Cl [II-020]
4.83[b]	–	–	CCC(NC(=O)c1snc(NCc2ccc(OC)cc2)c1Cl)C1CCCCC1 (stereo not drawn) [I-1170]
2.86[a]	–	–	Cc1cc(C)c(CN(C(=O)c2cc(N)ns2)C2CC2)c(C)c1 [I-977]
4.01[a]	–	–	Cc1ccc(F)c(CN(C(=O)c2cc(NCc3ccccc3)ns2)C2CC2)c1 [I-996]
2.14[a]	–	–	CC(=O)Nc1nsc(C(=O)NCC2CCCCC2)c1Cl [I-167]
4.46[a]	–	–	COc1ccc(CNc2nsc(C(=O)N(Cc3ccc(F)cc3F)C3CC3)c2Cl)c(OC)c1 [I-1012]
3.74[a]	–	–	O=C(c1cc(NCc2ccccc2)ns1)N(Cc1cc(F)ccc1F)C1CC1 [I-998]
2.47[a]	–	–	COc1ccc(CNc2nsc(C(=O)NCc3noc(C)n3)c2Cl)cc1 [I-1270]
6.11[a]	–	–	O=C(c1cc(N(Cc2ccccc2)Cc2ccccc2)ns1)N(Cc1cc(Cl)ccc1Br)C1CC1 [I-993]
4.63[a]	–	–	COc1ccc(CNc2nsc(C(=O)Nc3ccc(C)c(Cl)c3)c2Cl)cc1 [I-882]
3.08[a]	–	–	COc1ccc(CNc2nsc(C(=O)NCc3cc(OC)c(OC)c(OC)c3)c2Cl)cc1 [I-1344]
2.04[a]	–	–	Nc1nsc(C(=O)Nc2ccc(F)cc2)c1Cl [I-857]
2.46[a]	–	–	Nc1nsc(C(=O)NCCc2ccc(Cl)cc2)c1Cl [I-971]
2.02[a]	–	–	Nc1cc(C(=O)N(Cc2ccccc2)C2CC2)sn1 [I-978]
2.51[a]	–	–	Nc1nsc(C(=O)NCC2CCCCC2C(F)(F)F)c1Cl (stereo not drawn) [I-1554]
2.43[a]	–	–	Nc1nsc(C(=O)NCc2ccccc2F)c1-c1ccc(F)cc1 [I-335]
–	4.40^[a]	–	O=C(NCCC1CCCCC1)c1snc(Cl)c1Cl [E-II-033]
3.46[a]	–	–	COc1ccc(Nc2nsc(C(=O)NCc3ccccc3F)c2Cl)cc1 [I-060]
2.58[a]	–	–	Nc1nsc(C(=O)NCc2ncc(C(F)(F)F)cc2Cl)c1Cl [I-286]
2.10[a]	–	–	Nc1nsc(C(=O)NC2CCCCC2)c1Cl [I-001]
1.68[a]	–	–	Cc1c(N)nsc1C(=O)NCc1ccc(F)c(F)c1F [I-597]
2.10[a]	–	–	CCC(=O)Nc1nsc(C(=O)NCc2ccc(F)cc2OC)c1Cl [I-815]
3.63[a]	–	–	COc1ccc(CNc2nsc(C(=O)NC(C)(C)c3nc(C)cs3)c2Cl)cc1 [I-1267]
2.68[a]	–	–	COc1ccc(CNc2nsc(C(=O)NCC3COCC3C)c2Cl)cc1 (stereo not drawn) [I-1200]

LogP	LogP [a]	LogP [b]	SMILES
2.72[a]	–	–	Cc1cc(F)ccc1CNC(=O)c1snc(NC(=O)C(F)(F)F)c1Cl [I-816]
3.15[a]	–	–	Cc1cc(C)cc(CN(C(=O)c2snc(N)c2Cl)C2CC2)c1 [I-117]
2.66[a]	–	–	O=C(NCc1ccccc1F)c1snc(NC2CC2)c1Cl [I-057]
3.06[a]	–	–	C[C@H](NC(=O)c1snc(NC(=O)C(F)F)c1Cl)C1CCCCC1 [I-522]
–	2.00^[a]	–	CCS(CC)=Nc1nsc(C(=O)NCC2CCCCC2)c1Cl [II-052]
2.09[a]	–	–	C[C@H](NC(=O)c1cc(N)ns1)C1CCCCC1 [I-006]
2.12[a]	–	–	O=C(NCc1ccccc1F)c1snc(NC(=O)C2CC2)c1Cl [I-093]
–	5.93^[a]	–	C[C@H](NC(=O)c1snc(N=C(c2ccccc2)c2ccccc2)c1Cl)C1CCCCC1 [II-003]
3.68[a]	–	–	O=C(NCc1ccccc1F)c1snc(Nc2ccc(F)cc2)c1Cl [I-059]
–	5.27	5.09	CON(C(=O)c1snc(Cl)c1Cl)C(C)C1CCCCC1 (stereo not drawn) [E-II-028]
4.69[a]	–	–	COc1ccc(CNc2nsc(C(=O)NCC3CCCCCC3)c2Cl)cc1 [I-045]
2.87[a]	–	–	CCC(C)CNC(=S)c1snc(N)c1Cl (stereo not drawn) [I-1022]
3.48[a]	–	–	CC1(C)CC1N(Cc1ccc(Cl)cc1Cl)C(=O)c1cc(N)ns1 (stereo not drawn) [I-969]
6.25[a]	–	–	O=C(NCC1CCCCC1)c1snc(N(Cc2ccccc2)Cc2ccccc2)c1Br [I-541]
1.41[a]	–	–	Nc1cc(C(=O)NCc2ccccc2F)sn1 [I-305]
2.50[a]	–	–	COc1ccc(CNc2nsc(C(=O)NC3CCOCC3)c2Cl)cc1 [I-1190]
4.98[a]	–	–	O=C(NCc1ncc(C(F)(F)F)cc1Cl)c1cc(N(Cc2ccccc2)Cc2ccccc2)ns1 [I-162]
2.64[a]	–	–	O=C(NCc1ccc(F)cc1F)c1snc(NC(=O)C(F)(F)F)c1Cl [I-280]
2.01[a]	–	–	Nc1cc(C(=O)NCCc2ncc(C(F)(F)F)cc2Cl)sn1 [I-919]
2.14[a]	–	–	CCOc1c(N)nsc1C(=O)NC1CCCCC1 [I-727]
–	3.83^[a]	–	O=C(NCC1CCCO1)c1snc(N=C(c2ccccc2)c2ccccc2)c1Cl (stereo not drawn) [II-005]
1.24[a]	–	–	CC(=O)Nc1nsc(C(=O)NCc2ccc(C#N)cc2)c1Cl [I-847]
2.62[a]	–	–	C=CCONC(=O)c1snc(NCc2ccc(OC)cc2)c1Cl [I-1353]
4.38[a]	–	–	O=C(NCc1ccccc1F)c1cc(N(Cc2ccccc2)Cc2ccccc2)ns1 [I-311]

LogP	LogP [a]	LogP [b]	SMILES
3.20[a]	–	–	CCC1(CNC(=O)c2snc(N)c2Cl)CCCCC1 [I-836]
2.18[a]	–	–	Cc1c(N)nsc1C(=O)NCc1ccc(C(F)(F)F)cc1F [I-104]
3.19[a]	–	–	O=C(NC1CCCCC1c1ccccc1)c1snc(NC(=O)C2CC2)c1Cl (stereo not drawn) [I-302]
6.30[a]	–	–	O=C(c1cc(N(Cc2ccccc2)Cc2ccccc2)ns1)N(Cc1ccc(Cl)cc1Cl)C1CC1 [I-940]
3.70[a]	–	–	CC(c1cc(Cl)cc(Cl)c1)N(C(=O)c1snc(N)c1Cl)C1CC1 (stereo not drawn) [I-952]
5.17[a]	–	–	CCc1cccc(C)c1CN(C(=O)c1snc(NCc2ccc(OC)cc2)c1Cl)C1CC1 [I-898]
2.28[a]	–	–	Cc1cc(F)ccc1CNC(=O)c1snc(NC(=O)C(F)F)c1Cl [I-809]
2.53[a]	–	–	COc1ccc(CNc2nsc(C(=O)NCCCn3cccn3)c2Cl)cc1 [I-1194]
–	1.57^[a]	–	O=C(NCc1ccc(F)cc1F)c1snc(N=S2CCCC2)c1F [II-059]
2.61[a]	–	–	Nc1nsc(C(=O)NCc2ccc(F)cc2C(F)(F)F)c1Cl [I-324]
4.64[a]	–	–	COc1ccc(CNc2nsc(C(=O)NC3CCCCC3(C)C)c2Cl)cc1 (stereo not drawn) [I-075]
2.20[a]	–	–	Nc1nsc(C(=O)NCC2CCC(Cl)CC2)c1Cl (stereo not drawn) [I-1579]
4.06[a]	–	–	COc1ccc(CNc2nsc(C(=O)NCc3ccc(F)c(C(F)(F)F)c3)c2Cl)cc1 [I-1272]
2.16[a]	–	–	Nc1nsc(C(=O)NCC2CCCCC2Cl)c1F (stereo not drawn) [I-1536]
3.13[a]	–	–	CC(c1ccccc1C(F)(F)F)N(C(=O)c1snc(N)c1Cl)C1CC1 (stereo not drawn) [I-957]
2.21[a]	–	–	C[C@@H]1CCCC[C@H]1NC(=O)c1snc(N)c1F (relative stereo) [I-1357]
3.18[a]	–	–	CC(C)(C)C(=O)Nc1nsc(C(=O)NCC2CCCCC2)c1Cl [I-172]
3.61[a]	–	–	COc1ccc(CNc2nsc(C(=O)NC(C#N)c3ccc(F)c(F)c3)c2Cl)cc1 (stereo not drawn) [I-1326]
2.56[a]	–	–	COc1ccc(CNc2nsc(C(=O)NCc3ccnc(OC)n3)c2Cl)cc1 [I-1316]
3.35[a]	–	–	CCc1cccc(C)c1CN(C(=O)c1snc(N)c1Cl)C1CC1 [I-184]
4.55[a]	–	–	Nc1cc(C(=O)NCc2cc(F)cc(F)c2)sn1 [I-303]
0.84[a]	–	–	Nc1nsc(C(=O)NC2CC2)c1Cl [I-115]

SMILES	LogP	LogP [a]	LogP [b]
CN(C)C=Nc1nsc(C(=O)NCc2ccc(Cl)cc2)c1Cl [II-031]	–	2.41^[a]	–
O=C(NC1CCCC2CCCCC21)c1snc(N=CN2CCCC2)c1Cl (stereo not drawn) [II-037]	–	3.83^[a]	–

same assay, conditions: HPLC LC-UV, acidic range, 0.1% formic acid in water and acetonitrile as eluent

SMILES	chromatographic logP
O=C(O)c1snc(N(Cc2ccccc2)Cc2ccccc2)c1C1CC1 [E-VIII-008, 4-cyclopropyl-3-(dibenzylamino)isothiazole-5-carboxylic acid]	4.11
